Test results taken from patent US11766434B2, “Pyrimidinone derivatives as CDC7 inhibitors” (Cancer Research Technology Limited, priority 2016, dated 2023).

target: Cdc7 (Homo sapiens, UniProt O00311); test: Cdc7 cell pharmacodynamics assay Method 3: pS53MCM2 levels in SW48 cells; format: cell-based; parameters: endogenous in cells; host or cells: SW48; conditions: 6 hours treatment, read-out: Biomarker Method 3 (pEC50) (converted)
Description: This protocol describes a method to investigate the inhibition of Cdc7 activity by measuring pS53MCM2 levels in cells, after treatment with compounds.
• SW48 cells • RPMI 1640 (Sigma, R5886) • 10% FCS (Sera Laboratories International Ltd, EU000F Batch: 108005) • 100× L-Glutamine (Invitrogen, 25030-024) • D-Glucose Solution (10%) (Sigma, G8644) • HEPES Buffer Solution (Sigma, 83264) • Sodium Pyruvate (Sigma, S8636) • PBS (Fisger, BP399-4) • Trypsin/EDTA (Invitrogen 25300-054) • 2% BSA in PBS • Cell Extraction Buffer (Invitrogen FNN0011) • Protease inhibitor cocktail (Sigma P-2714) • PMSF 0.3M stock in DMSO (Sigma P7626) • Antibody—rabbit pMCM2 Ser53 (Bethyl #A300-756A) • Antibody—goat MCM2 (Bethyl #A300-122A) • Antibody—goat Anti Rabbit IgG HRP (Perbio Science UK Ltd 31462) • SuperSignal ELISA Pico Chemiluminescent Substrate (Perbio Science UK Ltd 37070) Method • Plate 30,000 SW48 cells per well in standard TC treated 96 well plate in 100 μL complete RPMI 1640 medium. • Allow cells to settle overnight in incubator set at 37° C. and 5% CO2. • Cell treatment: prepare a 384 well plate containing 80 μl PBS/well. The PBS should be at room temperature—to be referred to as intermediate plate. Transfer 2 μL of compound from mother plate to intermediate (daughter plate) 1:40 dilution, then 5 μL intermediate to cell (daughter) plate. • Once all cells are treated place the cells back to the incubator and incubate for 6 hours. • Dilute the capture antibody (total MCM2 #A300-122A) 1 in 250 in the required volume of PBS (5 mL per assay plate, plus 5 mL for dead volume) and add 50 μL to each well of a Hybond plate. Seal the plate and incubate at room temperature for a minimum of 2 hours. • Defrost aliquot of Invitrogen Cell Extraction Buffer (FNN0011) on ice and supplement with appropriate volume of both Sigma protease inhibitor cocktail (P-2714) and PMSF (final cone 1 mM from a 1 M stock in DMSO). • After the 6 hour cell treatment time, tap out the media from the assay plates and place them in the −80° C. freezer for at least 5 minutes. • Remove plates from freezer and add 20 μL of ice cold complete lysis buffer, with the multidrop. Incubate cells for 30 minutes at 4° C. • Add 80 μL per well 2% BSA. • Flick out the remaining liquid from the capture plate and transfer 80 μL from the lysis plate to the same wells in the capture/ELISA plate, using the Biomek. Cover with plate seal and incubate plates overnight at 4° C. • Wash plates with PBS, remove any residual remaining liquid and add 50 μL per well of pMCM2 Ser53 antibody (#A300-756A) diluted 1 in 100 in 2% BSA. Cover plate and incubate at room temperature for 2 hours with gentle shaking. • Wash plates with PBS, remove any residual remaining liquid and Incubate with 50 μL goat anti rabbit antibody (1 in 800 dilution in 2% BSA), for 1 hour at room temperature. • Wash plates with PBS, remove any residual remaining liquid and add 50 μL mixed SuperSignal Pico substrate. • Incubate each plate for 5 minutes at room temperature shielding the plates from direct light (with a cover plate). Read plates with the luminescent detection. Results

Chain of Cdc7 (O00311 whole entry): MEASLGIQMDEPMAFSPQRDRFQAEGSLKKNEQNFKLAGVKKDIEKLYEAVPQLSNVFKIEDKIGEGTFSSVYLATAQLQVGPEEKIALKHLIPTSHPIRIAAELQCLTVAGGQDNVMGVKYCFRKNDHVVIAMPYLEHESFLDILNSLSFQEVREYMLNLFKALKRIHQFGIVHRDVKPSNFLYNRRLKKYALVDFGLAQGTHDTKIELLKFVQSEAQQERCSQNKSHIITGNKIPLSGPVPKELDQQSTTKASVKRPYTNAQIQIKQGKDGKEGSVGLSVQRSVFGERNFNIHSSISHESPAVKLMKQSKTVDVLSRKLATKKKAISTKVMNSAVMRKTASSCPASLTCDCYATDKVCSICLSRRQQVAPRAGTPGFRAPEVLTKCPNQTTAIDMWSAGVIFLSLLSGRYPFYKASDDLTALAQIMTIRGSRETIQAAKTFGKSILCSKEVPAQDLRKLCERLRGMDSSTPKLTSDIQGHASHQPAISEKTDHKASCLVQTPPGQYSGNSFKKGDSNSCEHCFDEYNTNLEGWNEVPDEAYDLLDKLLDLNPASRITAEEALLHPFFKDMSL
Chain of Cdc7 (Q9UBU7 whole entry partner): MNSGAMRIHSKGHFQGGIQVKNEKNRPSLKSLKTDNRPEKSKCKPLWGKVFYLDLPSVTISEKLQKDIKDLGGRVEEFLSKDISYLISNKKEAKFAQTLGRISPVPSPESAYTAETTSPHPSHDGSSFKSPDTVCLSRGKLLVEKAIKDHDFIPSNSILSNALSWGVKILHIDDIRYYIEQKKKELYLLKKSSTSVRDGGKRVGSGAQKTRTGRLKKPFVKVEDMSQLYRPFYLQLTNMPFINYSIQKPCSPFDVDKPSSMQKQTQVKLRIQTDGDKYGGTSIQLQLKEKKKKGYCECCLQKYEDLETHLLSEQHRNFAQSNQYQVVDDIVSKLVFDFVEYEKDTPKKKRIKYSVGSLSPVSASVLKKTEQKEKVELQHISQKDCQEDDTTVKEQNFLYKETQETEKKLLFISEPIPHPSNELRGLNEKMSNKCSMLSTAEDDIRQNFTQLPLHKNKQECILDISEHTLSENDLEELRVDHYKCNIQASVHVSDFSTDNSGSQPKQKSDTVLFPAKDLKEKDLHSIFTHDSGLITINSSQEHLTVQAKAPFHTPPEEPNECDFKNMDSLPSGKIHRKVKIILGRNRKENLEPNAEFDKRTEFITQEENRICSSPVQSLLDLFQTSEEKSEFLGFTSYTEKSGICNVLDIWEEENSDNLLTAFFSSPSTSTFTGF

SMILES | EC50 [nM]
O=c1[nH]c(-c2scnc2Cl)nc(C2CCOCC2)c1Cl [Compound 4, 5-chloro-2-(4-chlorothiazol-5-yl)-4-tetrahydropyran-4-yl-1H-pyrimidin-6-one] | 1480
Cc1ncsc1-c1nc(C2CCOCC2)c(Cl)c(=O)[nH]1 [Compound 6, 5-chloro-2-(4-methylthiazol-5-yl)-4-tetrahydropyran-4-yl-1H-pyrimidin-6-one] | 2090
O=c1[nH]c(-c2scnc2C(F)(F)F)nc(C2CCOCC2)c1Cl [Compound 14, 5-chloro-4-tetrahydropyran-4-yl-2-[4-(trifluoromethyl)thiazol-5-yl]-1H-pyrimidin-6-one] | 2450
Cc1ncsc1-c1nc(N2CCN[C@@H](C(F)(F)F)C2)c(Cl)c(=O)[nH]1 [Compound 28, 5-chloro-2-(4-methylthiazol-5-yl)-4-[(3R)-3-(trifluoromethyl)piperazin-1-yl]-1H-pyrimidin-6-one] | 1100
C[C@@H]1COCCN1c1nc(-c2cn[nH]c2C(F)(F)F)[nH]c(=O)c1Cl [Compound 41, 5-chloro-4-[(3R)-3-methylmorpholin-4-yl]-2-[5-(trifluoromethyl)-1H-pyrazol-4-yl]-1H-pyrimidin-6-one] | 316
C[C@@H]1CNCCN1c1nc(-c2cn[nH]c2Cl)[nH]c(=O)c1Cl [Compound 43, 5-chloro-2-(5-chloro-1H-pyrazol-4-yl)-4-[(2R)-2-methylpiperazin-1-yl]-1H-pyrimidin-6-one] | 347
C[C@@H]1CNCCN1c1nc(-c2cn[nH]c2C(F)(F)F)[nH]c(=O)c1Cl [Compound 44, 5-chloro-4-[(2R)-2-methylpiperazin-1-yl]-2-[5-(trifluoromethyl)-1H-pyrazol-4-yl]-1H-pyrimidin-6-one] | 724
